Laboratory results as given in ChEMBL document CHEMBL2074478, “Cisplatin induces renal expression of P-glycoprotein and canalicular multispecific organic anion transporter” (Am J Physiol, 1999).

Columns and labels:
[1] = molecular target: ATP-binding cassette sub-family C member 2 (Rattus norvegicus, UniProt Q63120); test: (§1) TP_TRANSPORTER: Western in vivo, kidney of SD rat; assay type: functional, organism-based, Sprague-Dawley
[2] = molecular target: Multidrug resistance protein 1a (Rattus norvegicus) (UniProt Q6PSM0); test: TP_TRANSPORTER: Western in vivo, liver of SD rat; assay type: functional, organism-based; conditions: Sprague-Dawley
[3] = molecular target: Multidrug resistance protein 1a (Rattus norvegicus) (UniProt Q6PSM0); test: as §1; assay type: functional, organism-based; conditions: Sprague-Dawley
[4] = molecular target: Multidrug resistance protein 1a (Rattus norvegicus) (UniProt Q6PSM0); test: TP_TRANSPORTER: Western in vivo, intestine of SD rat; assay type: functional, organism-based; conditions: Sprague-Dawley

Chain of ATP-binding cassette sub-family C member 2 (Q63120 whole entry): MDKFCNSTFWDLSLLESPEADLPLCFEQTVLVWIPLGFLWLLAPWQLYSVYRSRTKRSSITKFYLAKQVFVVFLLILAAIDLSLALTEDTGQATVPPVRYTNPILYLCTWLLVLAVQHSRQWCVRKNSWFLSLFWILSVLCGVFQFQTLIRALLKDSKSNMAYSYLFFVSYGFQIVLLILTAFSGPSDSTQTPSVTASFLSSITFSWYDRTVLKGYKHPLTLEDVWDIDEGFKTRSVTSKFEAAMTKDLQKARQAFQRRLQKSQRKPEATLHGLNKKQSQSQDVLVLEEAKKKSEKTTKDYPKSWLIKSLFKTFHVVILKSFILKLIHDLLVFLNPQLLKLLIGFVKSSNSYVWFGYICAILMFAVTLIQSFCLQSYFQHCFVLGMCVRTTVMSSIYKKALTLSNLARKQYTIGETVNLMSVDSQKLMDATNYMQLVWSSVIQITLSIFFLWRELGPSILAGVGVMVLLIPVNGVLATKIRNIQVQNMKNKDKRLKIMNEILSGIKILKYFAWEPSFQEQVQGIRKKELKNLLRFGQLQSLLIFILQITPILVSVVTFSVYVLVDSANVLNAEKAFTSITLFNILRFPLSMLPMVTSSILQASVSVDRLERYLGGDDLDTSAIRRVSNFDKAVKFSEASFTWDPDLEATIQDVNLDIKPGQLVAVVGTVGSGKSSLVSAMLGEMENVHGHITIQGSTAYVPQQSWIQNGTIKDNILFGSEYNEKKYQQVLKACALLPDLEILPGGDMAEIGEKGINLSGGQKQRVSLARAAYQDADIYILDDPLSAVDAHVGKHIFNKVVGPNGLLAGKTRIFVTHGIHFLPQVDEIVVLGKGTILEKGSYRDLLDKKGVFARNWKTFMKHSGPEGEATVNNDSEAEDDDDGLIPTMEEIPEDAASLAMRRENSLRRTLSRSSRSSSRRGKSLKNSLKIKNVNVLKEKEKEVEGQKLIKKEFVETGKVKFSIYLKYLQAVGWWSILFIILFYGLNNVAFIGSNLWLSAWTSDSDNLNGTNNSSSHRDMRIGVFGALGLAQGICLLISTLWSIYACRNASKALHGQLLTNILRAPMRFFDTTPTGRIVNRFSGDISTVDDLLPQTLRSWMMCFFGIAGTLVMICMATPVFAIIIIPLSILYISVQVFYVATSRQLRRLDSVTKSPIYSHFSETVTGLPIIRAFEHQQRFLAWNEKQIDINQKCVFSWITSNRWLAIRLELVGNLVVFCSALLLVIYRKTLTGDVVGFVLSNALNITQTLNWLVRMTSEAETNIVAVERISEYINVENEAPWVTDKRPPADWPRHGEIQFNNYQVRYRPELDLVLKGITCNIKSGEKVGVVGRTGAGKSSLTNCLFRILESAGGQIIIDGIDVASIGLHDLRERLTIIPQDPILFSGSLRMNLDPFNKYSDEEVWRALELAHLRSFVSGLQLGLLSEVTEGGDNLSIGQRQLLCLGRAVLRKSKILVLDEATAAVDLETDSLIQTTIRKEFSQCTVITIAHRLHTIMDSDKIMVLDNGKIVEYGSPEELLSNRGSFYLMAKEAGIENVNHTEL

Row | Activity [1] | Activity [2] | Activity [3] | Activity [4] | Sequence
1 | inducer [+] | – | – | – | CISPLATIN [listing 1 of 2 here]
2 | – | inducer [+] | inducer [+] | inducer [+] | CISPLATIN [listing 2 of 2 here]
